In US20220050096A1, “ANALYTE-SENSITIVE PROBES AND CONTACT LENS FOR DIAGNOSIS OF OCULAR PATHOLOGIES” (University Of Maryland, Baltimore, priority 2020, published 2022):

Experiment: Intensity decay analysis of 1,8-ANS in various solvents and contact lenses
Type: physicochemical
Method: Fluorescence Spectroscopic Measurements. Fluorescence intensities and intensity decays were measured using a Varian™ Eclipse 4 spectrofluorometer and a FluoTime300 instrument from PicoQuant™ (Berlin, Germany) and analyzed with the EasyTau™ software. The excitation source was a 473 nm laser diode with a repetition rate of 40 MHZ and a pulse width less than 100 ps. In other embodiments, the excitation source for SG-PL was at 495 nm from a Solea™ supercontinuum laser (PicoQuant™, Germany) and a 375 nm laser diode (PDL 375, PicoQuant™), a repetition rate of 40 MHz, and a pulse width less than 100 ps. Some intensity and lifetime measurements for SG-PL (as indicated) were performed using Alba V confocal fluorescence lifetime microscopy, FLIM (ISS, Urbana, Ill.), with excitation source of a 473 nm laser diode with a repetition rate of 40 MHz and a pulse width near 250 ps.
Intensity decays were measured at the emission maximum with the band of 10 to 20 nm, analyzed in terms of the multi-exponential model:
I(t)=Σαi exp(−t/ti) (equation 1)
where Σαi=1.0 and Σfi=1.0. The term fi=αi τi is proportional to the fractional contribution of each component to the total intensity decay. The term τi/Σαi τi is the fractional contribution to the steady state emission. Here, we use the amplitude-weighted lifetime given by
In polar solvents like water, the emission of many fluorophores is shifted to longer wavelengths. In addition, the intensities can be much lower and the lifetimes much shorter. […] Table 20, below. […]

O=S(=O)(O)c1cccc2cccc(Nc3ccccc3)c12 [1,8-ANS, 1-anilino-8-naphthalene sulfonic acid]
f1 (1-hexanol): 0.01
f2 (1-hexanol): 0.99
α1 (1-hexanol): 0.08
α2 (1-hexanol): 0.92
τ1 (1-hexanol): 1.77 ns
τ2 (1-hexanol): 12.02 ns
τf (1-hexanol): 11.88 ns
τα (1-hexanol): 11.18 ns
f1 (25/75 MeOH/H2O): 0.98
f2 (25/75 MeOH/H2O): 0.02
α1 (25/75 MeOH/H2O): 0.996
α2 (25/75 MeOH/H2O): 0.004
τ1 (25/75 MeOH/H2O): 0.52 ns
τ2 (25/75 MeOH/H2O): 2.36 ns
τf (25/75 MeOH/H2O): 0.54 ns
τα (25/75 MeOH/H2O): 0.52 ns
f1 (50/50 MeOH/H2O): 0.85
f2 (50/50 MeOH/H2O): 0.15
α1 (50/50 MeOH/H2O): 0.925
α2 (50/50 MeOH/H2O): 0.075
τ1 (50/50 MeOH/H2O): 1.09 ns
τ2 (50/50 MeOH/H2O): 2.33 ns
τf (50/50 MeOH/H2O): 1.27 ns
τα (50/50 MeOH/H2O): 1.19 ns
f1 (Acetonitrile): 1.0
α1 (Acetonitrile): 1.0
τ1 (Acetonitrile): 7.04 ns
τf (Acetonitrile): 7.04 ns
τα (Acetonitrile): 7.04 ns
f1 (Biofinity ™ lens): 0.05
f2 (Biofinity ™ lens): 0.95
α1 (Biofinity ™ lens): 0.36
α2 (Biofinity ™ lens): 0.64
τ1 (Biofinity ™ lens): 0.40 ns
τ2 (Biofinity ™ lens): 11.00 ns
τf (Biofinity ™ lens): 11.91 ns
τα (Biofinity ™ lens): 8.76 ns
f1 (EtOH): 0.02
f2 (EtOH): 0.98
α1 (EtOH): 0.05
α2 (EtOH): 0.95
τ1 (EtOH): 3.13 ns
τ2 (EtOH): 8.83 ns
τf (EtOH): 8.74 ns
τα (EtOH): 8.57 ns
f1 (MyDay ™ lens): 0.20
f2 (MyDay ™ lens): 0.80
α1 (MyDay ™ lens): 0.421
α2 (MyDay ™ lens): 0.578
τ1 (MyDay ™ lens): 4.01 ns
τ2 (MyDay ™ lens): 12.79 ns
τf (MyDay ™ lens): 11.97 ns
τα (MyDay ™ lens): 9.70 ns
